{"source": "patent US5932227A", "about": "“Percutaneously administrable base composition and drug composition prepared therefrom” (Hisamitsu Pharmaceutical Co., Inc., priority 1992, dated 1999)", "assay": "concentration in blood of tulobuterol upon administering to a rat, compared with oral administration", "type": "in vivo", "settings": "oral 10 mg/kg"}
{"smiles": "CC(C)(C)NCC(O)c1ccccc1Cl", "note": "(centres unmarked) [tulobuterol]", "values": [{"measurement": "AUC", "setting": "blood", "result": 91000, "unit": "ng·h/mL"}, {"measurement": "bioavailability", "setting": "blood", "result": 5.37, "unit": "%"}, {"measurement": "concentration in blood of tulobuterol", "setting": "0.25 hr", "result": 227.0}, {"measurement": "concentration in blood of tulobuterol", "setting": "0.5 hr", "result": 37.7}, {"measurement": "concentration in blood of tulobuterol", "setting": "1 hr", "result": 17.1}, {"measurement": "concentration in blood of tulobuterol", "setting": "2 hr", "result": 4.3}, {"measurement": "concentration in blood of tulobuterol", "setting": "4 hr", "result": 0.8}, {"measurement": "concentration in blood of tulobuterol", "setting": "6 hr", "result": 0, "unit": "ng/mL"}, {"measurement": "concentration in blood of tulobuterol", "setting": "8 hr", "result": 0, "unit": "ng/mL"}, {"measurement": "concentration in blood of tulobuterol", "setting": "12 hr", "result": 0, "unit": "ng/mL"}, {"measurement": "concentration in blood of tulobuterol", "setting": "24 hr", "result": 0, "unit": "ng/mL"}]}
